Entries after “also recorded” stand apart in the source; their conditions may differ. Ends that are not written are not given here.
Tested on: serum IgG antibodies from patients with squamous cell carcinoma and from controls
Assay: Immunoassay 2: serum IgG specific for biotinylated peptide antigens, squamous cell carcinoma patients vs persons not known to have cancer
Format: binding, human
Conditions: 45 squamous cell carcinoma sera
Method: Using immunoassay 2 (see Materials and Methods) the following results were obtained.
Immunoassay Method 2: Used to Detect Serum IgA, IgD, IgE, IgG, and IgM Antibodies Specific for Individual Peptide Antigens
NeutrAvidin^a conjugated paper disc, 6 mm.
Serum diluent: 10 mM sodium phosphate, pH 7.20, with 150 MM sodium chloride, and 0.20 mg/mL sodium azide.
NeutrAvidin^a coated white microtiter plate, stored in 10 mM Tris-HCl, pH 7.50, containing 600 mM sodium chloride and 0.2 mg/mL thimerosal.
Plate blocking solution: 10 mM sodium phosphate, pH 7.20, containing 150 mM sodium chloride, 100 mg/mL Triton X-405, and 0.2 mg/mL thimerosal.
Plate wash buffer: 20 mM Tris chloride, pH 7.4, containing 150 mM sodium chloride, 0.5 mg/mL Triton X-405 and 0.2 mg/mL thimerosal.
(§1) Peptide solution: 0.06 μg/mL peptide dissolved in 20 mM Tris chloride, pH 7.4, containing 600 mM sodium chloride, 30 mg/mL polyethylene glycol 4000, 1 mM ethylenediaminetetraacetic acid, 1 mM ethylene glycol-bis(§-aminoethyl ether)N,N,N′,N′-tetraacetic acid, 0.5 mg/mL Triton X405 and 0.2 mg/mL thimerosal.
as §1, with “Control peptide” for “Peptide”, “0.013” for “0.06”, “μg/mL control” for “μg/mL”, “X-405” for “X405”
Conjugate solution: 0.100 μg/mL alkaline phosphatase conjugated polyclonal goat anti human IgG dissolved in 20 mM Tris-HCl, pH 7.40, with 600 mM sodium chloride, 30.0 mg/mL PEG-4000, 3.0 mg/mL BSA, 0.5 mg/mL Triton X-405 and 0.20 mg/mL thimerosal.
Substrate solution: 25.2 μg/mL 4-methylumbelliferyl phosphate dissolved in 180 mM 2-amino-2-methyl-1-propanol, pH 9.50, containing 123 μM magnesium chloride.
Serum preparation: • 1. Add 100 μL serum to 15 NeutrAvidin^a coated paper discs in a suitably sized test tube. • 2. Incubate with gentle mixing at ambient temperature for 16-20 hours. • 3. Add 7.900 mL of serum diluent and mix gently for 30 minutes. • 4. Vortex the tube gently to completely release the serum from the discs. • 5. Remove the treated serum from the discs and transfer it to a suitable storage tube. • 6. Store the treated serum at 4 EC.
Assay procedure: • 1. Two days before assay, aspirate the storage solution from the NeutrAvidin^a coated white microtiter plate and add 200 μL plate blocking solution to each well. • 2. Cover the plate and incubate at ambient temperature for 16-20 hours. • 3. One day before assay. wash the blocked plate three times with plate wash buffer, approximately 275 μL per well per wash. […] Read the plate at 30 and 60 minutes in a fluorescence microtiter plate reader set at 365 nm excitation and 450 nm emission. […]

Substance	sera from squamous cell carcinoma patients with IgG antibody level above control mean background+2.5 SD
aemNgSk: TROP1 peptide with the amino acid sequence aemNgSk (AEMNGSK; not fully specified)	6 of 45
rNvs: EGFR peptide (portion of SEQ ID NO: 67), deglycosylated asparagine N (RNVS; also: deglycosylated asparagine)	2 of 45

Same assay, conditions: control population

Substance	sera from persons not known to have cancer: IgG antibody level relative to control mean background+2.5 SD
aemNgSk: TROP1 peptide with the amino acid sequence aemNgSk (AEMNGSK; not fully specified)	one
rNvs: EGFR peptide (portion of SEQ ID NO: 67), deglycosylated asparagine N (RNVS; also: deglycosylated asparagine)	below the mean background+2.5 standard deviations; also recorded: below the mean background plus 4 standard deviations

Tested on: antibodies in sera from prostate cancer patients
Assay: Prostate cancer serum test of cell surface protein peptides (Table 3)
Format: binding, human
Set-up: key: +: positive or negative reactivity between peptides representing modified peptide regions of cancer cell surface protein molecules with antibodies in sera from prostate cancer patients; −: positive or negative reactivity between peptides representing modified peptide regions of cancer cell surface protein molecules with antibodies in sera from prostate cancer patients
Conditions: reactivity of peptide with antibodies in sera from prostate cancer patients
Description: Table 3 third column illustrates the positive or negative reactivity between peptides representing modified peptide regions of cancer cell surface protein molecules with antibodies in sera from prostate cancer patients. The presence or absence in prostate cancer cells of the 41 tested molecules is shown as + or − in column four.
Sixth, employing the immunoassays disclosed herein, each biotinylated peptide is screened as an antigen against sera or other relevant biological fluids containing antibodies taken from one of the following groups: cancer patients, patients with benign lesions or inflammatory conditions, and healthy subjects. Peptides can also be screened using tumor-infiltrating lymphocytes or peripheral blood-born lymphocytes from cancer patients. Candidate peptides we consider cancer-specific or cancer-associated depend on whether they fit the following definitions.

Substance	Prostate Cancer Serum Test Result
qdNkt: Tested peptide of cell surface protein integrin alpha (v) (QDNKT; also: biotin label at one end, end not given here)	+
qkNqt: Tested peptide of cell surface protein integrin alpha 9 (QKNQT; also: biotin label at one end, end not given here)	−
qkNss: Tested peptide of cell surface protein integrin beta 6 (QKNSS; also: biotin label at one end, end not given here)	−
qrNit: Tested peptide of cell surface protein integrin alpha 1 (QRNIT; not fully specified)	−
raNhs: Tested peptide of cell surface protein integrin alpha 6 (RANHS; not fully specified)	−
rcNgs: Tested peptide of cell surface protein integrin beta 5 (RCNGS; not fully specified)	−
rmNit: Tested peptide of cell surface protein integrin alpha 3 (RMNIT; not fully specified)	−
saNrs: Tested peptide of cell surface protein CD66 (SANRS; not fully specified)	+
sdNst: Tested peptide of cell surface protein CD53 (SDNST; not fully specified)	−
seNas: Tested peptide of cell surface protein integrin alpha 1 (SENAS; not fully specified)	−
seNdt: Tested peptide of cell surface protein protein-tyrosine phosphatase PCP-2 (SENDT; not fully specified)	−
skNfs: Tested peptide of cell surface protein integrin beta 3 (SKNFS; not fully specified)	−
skNqs: Tested peptide of cell surface protein CD66 (SKNQS; not fully specified)	−
spNhs: Tested peptide of cell surface protein CD44 (SPNHS; not fully specified)	−
teNqt: Tested peptide of cell surface protein integrin alpha (v) (TENQT; not fully specified)	−
tkNgt: Tested peptide of cell surface protein desmoglein 1 (TKNGT; not fully specified)	−
trNdt: Tested peptide of cell surface protein CD66 (TRNDT; not fully specified)	−
trNvs: Tested peptide of cell surface protein pdgfr beta (TRNVS; not fully specified)	−
vgNks: Tested peptide of cell surface protein hepatocyte gfr (VGNKS; not fully specified)	−
vkNst: Tested peptide of cell surface protein E-Cadherin (VKNST; not fully specified)	+
vtNrs: Tested peptide of cell surface protein integrin beta I (VTNRS; not fully specified)	−

Reference: US6892140B1, “Immunogenic cancer peptides and uses thereof” (Enteron, Inc., priority 2000, dated 2005)
